ChEMBL document CHEMBL4392830, “Synthesis and biological evaluation of Doxorubicin-containing conjugate targeting PSMA” (Bioorg Med Chem Lett, 2019)
The source made the active and inactive calls. The rule behind the calls is not given here.

Assays:
[1] = Drug uptake in nucleus of PSMA-positive human LNCAP cells measured after 48 hrs; format: ADME, subcellular
[2] = Ratio of drug level in nucleus to cytoplasm of PSMA-positive human LNCAP cells measured after 40 milliseconds; format: ADME
[3] = Ratio of drug level in nucleus to cytoplasm of PSMA-negative human PC3 cells measured after 40 milliseconds; format: ADME
[4] = Antitumor activity against PSMA-positive human PC3-PIP cells xenografted in nu/nu mouse assessed as tumor growth inhibition at 4 mg/kg, ip per week for 3 weeks relative to control; format: functional; details: 504 h, read-out: TGI
[5] = Drug uptake in nucleus of PSMA-positive human LNCAP cells at 15 uM measured after 2 hrs by DAPI staining based fluorescence assay; format: ADME, subcellular
[6] = Drug uptake in nucleus of PSMA-negative human PC3 cells at 15 uM measured after 2 hrs by DAPI staining based fluorescence assay; format: ADME, subcellular; details: pc-3, 2 h
[7] = system: LNCaP C4-2; experiment: Cytotoxicity against PSMA-positive human C4-2 cells by cellTiter 96 aqueous cell proliferation assay; format: functional, cell-based
[8] = system: PC-3; experiment: Cytotoxicity against PSMA-negative human PC3 cells by MTT assay; format: functional
[9] = system: PC-3; experiment: Cytotoxicity against PSMA-negative human PC3 cells by cellTiter 96 aqueous cell proliferation assay; format: functional, cell-based
[10] = system: LNCaP; experiment: Cytotoxicity against PSMA-positive human LNCAP cells by MTT assay; format: functional
[11] = target: T1, Glutamate carboxypeptidase 2 (Homo sapiens, UniProt Q04609); experiment: Binding affinity to PSMA in human LNCAP cells measured after 2 hrs by DAPI staining based fluorescence assay; format: ADME, cell-based
T1 sequence (Q04609 whole entry): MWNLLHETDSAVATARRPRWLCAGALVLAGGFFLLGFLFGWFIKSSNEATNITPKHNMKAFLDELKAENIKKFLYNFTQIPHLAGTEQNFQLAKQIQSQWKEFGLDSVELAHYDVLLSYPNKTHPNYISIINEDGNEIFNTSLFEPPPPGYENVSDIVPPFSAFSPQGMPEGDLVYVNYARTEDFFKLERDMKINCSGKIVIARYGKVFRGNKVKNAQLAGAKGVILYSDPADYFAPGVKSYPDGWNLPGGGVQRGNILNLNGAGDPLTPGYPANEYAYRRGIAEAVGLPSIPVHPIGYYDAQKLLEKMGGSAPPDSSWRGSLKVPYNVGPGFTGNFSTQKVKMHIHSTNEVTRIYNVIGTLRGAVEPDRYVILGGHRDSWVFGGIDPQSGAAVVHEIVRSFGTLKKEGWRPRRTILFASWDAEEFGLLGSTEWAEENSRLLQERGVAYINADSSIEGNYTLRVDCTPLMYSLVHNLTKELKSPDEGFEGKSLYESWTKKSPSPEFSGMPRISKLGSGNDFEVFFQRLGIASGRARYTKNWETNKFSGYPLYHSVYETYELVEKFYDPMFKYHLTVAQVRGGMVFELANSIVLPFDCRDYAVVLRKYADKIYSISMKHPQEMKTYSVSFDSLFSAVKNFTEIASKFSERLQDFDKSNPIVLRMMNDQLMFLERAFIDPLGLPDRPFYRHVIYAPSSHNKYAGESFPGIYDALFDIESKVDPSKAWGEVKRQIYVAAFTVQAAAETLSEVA

[12] = Drug uptake in PSMA-negative human PC3 cells measured after 2 hrs by DAPI staining based fluorescence assay; format: ADME, cell-based; details: pc-3, 2 h
[13] = Drug uptake in nucleus of PSMA-negative human PC3 cells measured after 40 milliseconds; format: ADME, subcellular; details: pc-3
[14] = target: T1, Glutamate carboxypeptidase 2; experiment: Binding affinity to PSMA in human LNCAP cells assessed as doxorubicin release in cytoplasm measured after 48 hrs; format: ADME, cell-based
[15] = target: T1, Glutamate carboxypeptidase 2; experiment: Binding affinity to PSMA in human LNCAP cells assessed as doxorubicin release in cytoplasm measured after 40 milliseconds; format: ADME, cell-based
[16] = Drug uptake in cytoplasm of PSMA-negative human PC3 cells measured after 40 milliseconds; format: ADME, subcellular; details: pc-3
[17] = target: T1, Glutamate carboxypeptidase 2; experiment: Binding affinity to PSMA in human LNCAP cells assessed as doxorubicin release in nucleus measured after 40 milliseconds; format: ADME, cell-based

| Structure (SMILES) | Drug uptake [1] | Ratio [2] | Ratio [3] | inhibition in vivo at 4 mg/kg [4] | Drug uptake [5] | Drug uptake [6] | IC50 [7] | CC50 [8] | IC50 [9] | CC50 [10] | Activity [11] | Drug uptake [12] | Drug uptake [13] | Activity [7] | Activity [14] | Activity [15] | Drug uptake [16] | Activity [9] | Activity [17] |
| --- | --- | --- | --- | --- | --- | --- | --- | --- | --- | --- | --- | --- | --- | --- | --- | --- | --- | --- | --- |
| COc1cccc2c1C(=O)c1c(O)c3c(c(O)c1C2=O)C[C@@](O)(C(=O)CO)C[C@@H]3O[C@H]1C[C@H](N)[C@H](O)[C@H](C)O1 [DOXORUBICIN] | Active | 3.5 | 3.7 | 92% | Active | Active | > 32 nM | < 500 nM | > 32 nM | 107 nM |  |  |  |  |  |  |  |  |  |
| CN1\C(=C/C=C/C=C/C2=[N+](CCCCCC(=O)NCCCCCCCCCCC(=O)NCCCC[C@H](NC(=O)N[C@@H](CCC(=O)O)C(=O)O)C(=O)O)c3cc(S(=O)(=O)[O-])ccc3C2(C)C)C(C)(C)c2cc(S(=O)(=O)[O-])ccc21.[Na+] |  |  |  |  |  |  |  |  |  |  | Active | Not Active |  |  |  |  |  |  |  |
| COc1cccc2c1C(=O)c1c(O)c3c(c(O)c1C2=O)C[C@@](O)(C(=O)CO)C[C@@H]3O[C@H]1C[C@H](NC(=O)CCC(=O)NCCCCCCCCCCC(=O)NCCCC[C@H](NC(=O)N[C@@H](CCC(=O)O)C(=O)O)C(=O)O)[C@H](O)[C@H](C)O1 |  |  |  |  |  |  |  | inactive |  | inactive |  |  | Not Active | inactive | Active | Not Active | Not Active | inactive | Not Active |
